The values that follow come from ChEMBL document CHEMBL5291721, “A preclinical secondary pharmacology resource illuminates target-adverse drug reaction associations of marketed drugs” (Nat Commun, 2023).

In one assay the target is T1, Adenosine receptor A3 (Homo sapiens, UniProt P0DMS8).
T1 sequence (P0DMS8 whole entry): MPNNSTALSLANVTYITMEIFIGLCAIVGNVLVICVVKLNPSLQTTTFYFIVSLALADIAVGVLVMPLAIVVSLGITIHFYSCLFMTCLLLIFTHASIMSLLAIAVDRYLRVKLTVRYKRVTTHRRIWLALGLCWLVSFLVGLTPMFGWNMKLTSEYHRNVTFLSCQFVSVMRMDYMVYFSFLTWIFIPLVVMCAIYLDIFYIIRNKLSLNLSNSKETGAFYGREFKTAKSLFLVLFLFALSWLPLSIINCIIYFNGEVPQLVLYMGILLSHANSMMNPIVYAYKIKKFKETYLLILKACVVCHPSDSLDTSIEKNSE

Assay [1] addresses Neuronal acetylcholine receptor subunit alpha-4 (Homo sapiens, UniProt P43681).
Assay [2] deals with Growth hormone secretagogue receptor type 1 (Homo sapiens, UniProt Q92847).
Assay [3] addresses T2, 5-hydroxytryptamine receptor 2C (Homo sapiens, UniProt P28335).
T2 sequence (P28335 whole entry): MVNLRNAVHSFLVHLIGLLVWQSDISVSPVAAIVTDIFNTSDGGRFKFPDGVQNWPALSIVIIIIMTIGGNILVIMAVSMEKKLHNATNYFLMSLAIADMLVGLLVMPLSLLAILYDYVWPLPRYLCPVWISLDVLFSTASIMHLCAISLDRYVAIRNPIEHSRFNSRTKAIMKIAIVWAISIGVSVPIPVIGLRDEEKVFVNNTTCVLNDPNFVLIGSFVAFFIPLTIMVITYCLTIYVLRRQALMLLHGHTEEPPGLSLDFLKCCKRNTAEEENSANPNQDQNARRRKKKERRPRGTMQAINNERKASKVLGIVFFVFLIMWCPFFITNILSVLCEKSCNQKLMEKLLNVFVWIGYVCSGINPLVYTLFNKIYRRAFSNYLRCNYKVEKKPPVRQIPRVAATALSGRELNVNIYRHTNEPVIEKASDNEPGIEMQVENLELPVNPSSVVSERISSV

For assay [4], the target named is T3, 5-hydroxytryptamine receptor 3A (Homo sapiens, UniProt P46098).
T3 sequence (P46098 whole entry): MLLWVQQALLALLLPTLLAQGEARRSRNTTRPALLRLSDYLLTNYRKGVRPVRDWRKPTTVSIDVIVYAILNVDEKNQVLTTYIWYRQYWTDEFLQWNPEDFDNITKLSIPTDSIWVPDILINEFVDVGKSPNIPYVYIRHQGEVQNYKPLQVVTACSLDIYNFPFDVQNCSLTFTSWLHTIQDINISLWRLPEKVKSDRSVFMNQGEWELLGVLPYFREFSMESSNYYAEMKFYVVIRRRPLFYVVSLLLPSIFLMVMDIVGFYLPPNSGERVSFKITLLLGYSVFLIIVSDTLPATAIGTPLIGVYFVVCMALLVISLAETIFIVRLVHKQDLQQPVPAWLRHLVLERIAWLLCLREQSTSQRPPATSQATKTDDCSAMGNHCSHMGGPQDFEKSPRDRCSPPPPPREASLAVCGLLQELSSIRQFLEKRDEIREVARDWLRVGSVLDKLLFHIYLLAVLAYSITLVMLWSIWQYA
It is filed as functional.

In assay [5] the target is T4, Prostaglandin G/H synthase 1 (Rattus norvegicus, UniProt Q63921).
T4 sequence (Q63921 whole entry): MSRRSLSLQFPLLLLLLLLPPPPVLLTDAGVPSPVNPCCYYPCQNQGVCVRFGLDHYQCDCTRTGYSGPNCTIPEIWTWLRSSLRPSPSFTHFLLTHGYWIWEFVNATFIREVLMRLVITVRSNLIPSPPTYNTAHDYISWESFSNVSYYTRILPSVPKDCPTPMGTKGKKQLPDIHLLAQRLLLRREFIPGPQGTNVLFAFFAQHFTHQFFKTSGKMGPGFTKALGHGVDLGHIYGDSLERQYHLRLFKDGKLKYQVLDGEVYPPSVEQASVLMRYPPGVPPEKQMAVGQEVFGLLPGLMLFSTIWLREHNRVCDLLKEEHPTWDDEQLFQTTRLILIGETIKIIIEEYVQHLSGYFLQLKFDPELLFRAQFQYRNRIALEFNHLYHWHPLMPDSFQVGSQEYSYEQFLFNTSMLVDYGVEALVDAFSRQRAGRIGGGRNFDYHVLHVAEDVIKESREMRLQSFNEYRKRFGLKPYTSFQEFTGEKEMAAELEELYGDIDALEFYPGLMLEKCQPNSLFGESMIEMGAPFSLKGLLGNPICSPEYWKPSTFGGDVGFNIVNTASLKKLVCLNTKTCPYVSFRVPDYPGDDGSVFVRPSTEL
Type of assay: functional.

For assay [6], the target named is T5, Alpha-2A adrenergic receptor (Homo sapiens, UniProt P08913).
T5 sequence (P08913 whole entry): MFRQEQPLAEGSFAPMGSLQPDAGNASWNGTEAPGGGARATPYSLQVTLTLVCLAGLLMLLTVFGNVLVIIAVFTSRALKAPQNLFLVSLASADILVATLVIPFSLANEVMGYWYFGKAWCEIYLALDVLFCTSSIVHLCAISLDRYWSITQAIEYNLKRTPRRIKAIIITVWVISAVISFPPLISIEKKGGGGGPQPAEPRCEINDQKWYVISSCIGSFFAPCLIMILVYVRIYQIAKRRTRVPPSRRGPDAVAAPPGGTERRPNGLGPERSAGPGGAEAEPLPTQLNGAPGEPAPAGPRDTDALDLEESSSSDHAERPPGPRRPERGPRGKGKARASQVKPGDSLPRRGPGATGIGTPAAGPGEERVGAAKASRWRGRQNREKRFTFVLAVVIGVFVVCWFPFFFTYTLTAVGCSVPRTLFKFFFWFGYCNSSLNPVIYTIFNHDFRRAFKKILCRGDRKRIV
It is filed as functional, cell-based.

The next assay concerns the target D(1A) dopamine receptor (Homo sapiens, UniProt P21728). Type of assay: functional, cell-based.
Another assay concerns the target Histamine H2 receptor (Homo sapiens, UniProt P25021). It is filed as functional, cell-based.
Assay [7] concerns the target 5-hydroxytryptamine receptor 2B (Homo sapiens, UniProt P41595). It is filed as functional, cell-based.
Further: assay procedure not described here.

Chain of Histamine H2 receptor (P25021 whole entry): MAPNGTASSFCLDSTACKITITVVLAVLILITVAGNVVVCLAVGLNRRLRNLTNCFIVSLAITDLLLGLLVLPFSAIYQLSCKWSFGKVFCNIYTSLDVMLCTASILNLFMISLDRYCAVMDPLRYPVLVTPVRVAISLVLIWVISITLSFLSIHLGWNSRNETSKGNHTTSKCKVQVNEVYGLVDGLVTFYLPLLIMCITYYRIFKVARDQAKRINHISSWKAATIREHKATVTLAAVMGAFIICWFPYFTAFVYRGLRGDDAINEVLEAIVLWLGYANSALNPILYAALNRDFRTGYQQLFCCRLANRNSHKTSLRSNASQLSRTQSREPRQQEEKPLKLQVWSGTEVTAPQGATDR
Chain of Growth hormone secretagogue receptor type 1 (Q92847 whole entry): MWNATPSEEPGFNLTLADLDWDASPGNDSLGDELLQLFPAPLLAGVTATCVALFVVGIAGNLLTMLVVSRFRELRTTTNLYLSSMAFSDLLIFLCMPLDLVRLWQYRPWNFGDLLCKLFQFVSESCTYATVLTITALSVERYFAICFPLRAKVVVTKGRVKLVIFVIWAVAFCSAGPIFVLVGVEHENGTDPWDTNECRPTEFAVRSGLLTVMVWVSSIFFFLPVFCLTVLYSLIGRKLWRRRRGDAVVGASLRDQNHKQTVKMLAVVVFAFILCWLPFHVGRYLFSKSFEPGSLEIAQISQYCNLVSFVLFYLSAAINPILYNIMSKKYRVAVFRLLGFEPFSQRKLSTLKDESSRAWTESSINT
Chain of Neuronal acetylcholine receptor subunit alpha-4 (P43681 whole entry): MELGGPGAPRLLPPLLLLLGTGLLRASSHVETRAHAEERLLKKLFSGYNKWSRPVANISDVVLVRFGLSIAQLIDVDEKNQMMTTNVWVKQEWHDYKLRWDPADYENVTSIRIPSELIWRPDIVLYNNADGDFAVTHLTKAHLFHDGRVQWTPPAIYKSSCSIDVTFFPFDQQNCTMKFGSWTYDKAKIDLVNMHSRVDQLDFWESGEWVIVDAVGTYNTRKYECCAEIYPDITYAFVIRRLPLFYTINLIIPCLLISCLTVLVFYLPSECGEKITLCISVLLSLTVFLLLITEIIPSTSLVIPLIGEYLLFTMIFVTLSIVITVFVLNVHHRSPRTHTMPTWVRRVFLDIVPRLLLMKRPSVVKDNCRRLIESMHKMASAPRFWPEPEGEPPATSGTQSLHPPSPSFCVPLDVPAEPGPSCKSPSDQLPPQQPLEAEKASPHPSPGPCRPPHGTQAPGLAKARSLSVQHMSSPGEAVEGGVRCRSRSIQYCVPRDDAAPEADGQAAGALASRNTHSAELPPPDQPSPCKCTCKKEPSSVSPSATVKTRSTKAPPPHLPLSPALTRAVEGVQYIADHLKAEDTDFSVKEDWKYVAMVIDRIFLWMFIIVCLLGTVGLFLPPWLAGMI
Chain of D(1A) dopamine receptor (P21728 whole entry): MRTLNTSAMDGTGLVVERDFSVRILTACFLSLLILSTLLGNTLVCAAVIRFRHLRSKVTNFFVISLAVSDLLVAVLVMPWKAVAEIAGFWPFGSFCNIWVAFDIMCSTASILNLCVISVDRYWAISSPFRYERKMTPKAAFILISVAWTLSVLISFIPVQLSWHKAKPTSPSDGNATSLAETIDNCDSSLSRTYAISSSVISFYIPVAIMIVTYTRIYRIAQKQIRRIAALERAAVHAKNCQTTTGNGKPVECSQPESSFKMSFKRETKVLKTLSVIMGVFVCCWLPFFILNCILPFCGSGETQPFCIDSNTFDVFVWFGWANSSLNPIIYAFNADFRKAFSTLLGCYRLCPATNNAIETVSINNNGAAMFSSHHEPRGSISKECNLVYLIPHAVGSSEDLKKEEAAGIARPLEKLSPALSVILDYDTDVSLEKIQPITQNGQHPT
Chain of 5-hydroxytryptamine receptor 2B (P41595 whole entry): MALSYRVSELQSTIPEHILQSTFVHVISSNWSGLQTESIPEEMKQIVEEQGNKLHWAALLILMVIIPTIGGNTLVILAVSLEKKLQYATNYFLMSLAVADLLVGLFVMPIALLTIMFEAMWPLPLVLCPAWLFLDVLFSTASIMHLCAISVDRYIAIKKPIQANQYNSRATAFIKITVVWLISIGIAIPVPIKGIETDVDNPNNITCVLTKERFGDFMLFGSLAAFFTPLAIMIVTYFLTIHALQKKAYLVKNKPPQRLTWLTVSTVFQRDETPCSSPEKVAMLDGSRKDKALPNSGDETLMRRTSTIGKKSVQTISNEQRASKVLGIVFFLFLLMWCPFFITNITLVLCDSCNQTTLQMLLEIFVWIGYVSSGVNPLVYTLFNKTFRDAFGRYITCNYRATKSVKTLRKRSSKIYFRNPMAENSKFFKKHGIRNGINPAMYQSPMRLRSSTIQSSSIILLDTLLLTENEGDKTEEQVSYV

In the case of `C[C@]1(COc2ccc(N3CCC(Oc4ccc(OC(F)(F)F)cc4)CC3)cc2)Cn2cc([N+](=O)[O-])nc2O1`, the AC50 was more than 30 µM at Adenosine receptor A3; more than 10 µM in [1]; more than 30 µM in [2]; more than 30 µM in assay [3]; more than 10 µM in assay [4]; more than 30 µM in assay [5].

`C[C@]12CC[C@H](O)CC1=CC[C@@H]1[C@@H]2CC[C@]2(C)C(c3cccnc3)=CC[C@@H]12` [ABIRATERONE]: the AC50 on Adenosine receptor A3 was more than 30 µM; in assay [6], more than 10 µM; in assay [1], more than 10 µM; on D(1A) dopamine receptor, more than 10 µM; in [2], more than 30 µM; at Histamine H2 receptor, more than 10 µM. Besides, the AC50 was more than 10 µM in assay [7], more than 30 µM in [3], more than 30 µM in assay [4] and more than 30 µM in assay [5].

With `CC(=O)OCC[N+](C)(C)C` [ACETYLCHOLINE], the AC50 was more than 30 µM on Adenosine receptor A3; more than 10 µM in assay [6]; more than 10 µM on D(1A) dopamine receptor; more than 30 µM in assay [2]; more than 10 µM on Histamine H2 receptor; more than 10 µM in [7]. Also, the AC50 is more than 30 µM in assay [3], more than 10 µM in assay [4] and more than 30 µM in assay [5].

Regarding `O=C(Nc1nc(-c2cc(Cl)cs2)c(N2CCN(C3CCCCC3)CC2)s1)c1cnc(N2CCC(C(=O)O)CC2)c(Cl)c1` [AVATROMBOPAG], the AC50 (at Adenosine receptor A3; in assay [1]; in [2]; in assay [3]; in [4]) was more than 10 µM throughout.

For `CN(C)C(=O)Oc1cc(OC(=O)N(C)C)cc(C(O)CNC(C)(C)C)c1` (stereo not drawn) [BAMBUTEROL], the AC50 (at Adenosine receptor A3; in assay [1]; in assay [2]; in assay [5]) was more than 30 µM in each case.

In the case of `C[C@H]1C[C@H]2[C@@H]3CCC4=CC(=O)C=C[C@]4(C)[C@@]3(Cl)[C@@H](O)C[C@]2(C)[C@@]1(O)C(=O)CO` [BECLOMETHASONE], the AC50 on Adenosine receptor A3 is more than 30 µM; in assay [1], more than 10 µM; in assay [2] it was more than 30 µM; in assay [3], more than 30 µM; in assay [4], more than 30 µM; in assay [5], more than 30 µM.

For `CO[C@@]1(NC(=O)CSCC#N)C(=O)N2C(C(=O)O)=C(CSc3nnnn3C)CS[C@@H]21` [CEFMETAZOLE], the AC50 (in [6]; on D(1A) dopamine receptor; on Histamine H2 receptor; in assay [7]; in assay [4]) was more than 30 µM in each case.

For `CO/N=C(\C(=O)N[C@@H]1C(=O)N2C(C(=O)[O-])=C(C[n+]3cccc4c3CCC4)CS[C@H]12)c1csc(N)n1` [CEFPIROME], the AC50 (in assay [6]; on D(1A) dopamine receptor; at Histamine H2 receptor; in assay [7]; in assay [3]; in assay [4]) was more than 30 µM in each case.

Take `NS(=O)(=O)c1cc(C2(O)NC(=O)c3ccccc32)ccc1Cl` (stereo not drawn) [CHLORTHALIDONE]: the AC50 (on Adenosine receptor A3; in [6]; in assay [1]; at D(1A) dopamine receptor; in [2]; on Histamine H2 receptor) was more than 10 µM each time. The concentration at half-maximal activity (AC50) was more than 10 µM in assay [7], more than 30 µM in assay [3], more than 30 µM in assay [4] and more than 10 µM in assay [5].

For `CC[C@H]1OC(=O)[C@H](C)[C@@H](O[C@H]2C[C@@](C)(OC)[C@@H](O)[C@H](C)O2)[C@H](C)[C@@H](O[C@@H]2O[C@H](C)C[C@H](N(C)C)[C@H]2O)[C@](C)(OC)C[C@@H](C)C(=O)[C@H](C)[C@@H](O)[C@]1(C)O` [CLARITHROMYCIN], the AC50 (at Adenosine receptor A3; in assay [6]; in assay [1]; at D(1A) dopamine receptor; in assay [2]; on Histamine H2 receptor) was more than 30 µM in each case. Besides, the AC50 in [7] and in assay [5] was more than 30 µM each time.

In the case of `Oc1c(I)cc(Cl)c2cccnc12` [CLIOQUINOL], the AC50 in assay [6] is more than 30 µM; on D(1A) dopamine receptor, more than 30 µM; on Histamine H2 receptor it was more than 30 µM; in [7], more than 30 µM; in [3], more than 10 µM; in assay [4] it was more than 30 µM.

As to `C[C@@H]1CCC[C@H](C)N1NC(=O)c1ccc(Cl)c(S(N)(=O)=O)c1` [CLOPAMIDE], the AC50 (at Adenosine receptor A3; in [6]; in assay [1]; at D(1A) dopamine receptor; in [2]; on Histamine H2 receptor) was more than 30 µM throughout. The AC50 in assay [7], in [3], in assay [4] and in [5] was more than 30 µM each time.

On to `COc1ccc2c(c1)[C@]13CCCC[C@@H]1[C@H](C2)N(C)CC3` [DEXTROMETHORPHAN], for which the AC50 on Adenosine receptor A3 was more than 30 µM; in assay [6], more than 10 µM; in [1] it was more than 10 µM; at D(1A) dopamine receptor, more than 10 µM; in assay [2], more than 30 µM; on Histamine H2 receptor it was more than 10 µM. The AC50 is more than 10 µM in assay [7], more than 30 µM in assay [3], more than 10 µM in assay [4] and more than 30 µM in assay [5].

On to `CNCCCC1c2ccccc2C=Cc2ccccc21` [PROTRIPTYLINE], for which the AC50 (on Adenosine receptor A3; in [6]; in assay [1]; at D(1A) dopamine receptor; in [2]; at Histamine H2 receptor) was more than 10 µM in each case. Besides, the AC50 is more than 10 µM in assay [7], more than 30 µM in assay [4] and more than 10 µM in [5].

For `O=C(CCCN1CCC2(CC1)C(=O)NCN2c1ccccc1)c1ccc(F)cc1` [SPIPERONE], the AC50 on Adenosine receptor A3 was more than 30 µM; in assay [6], 4.5 µM; in assay [1] it was more than 30 µM; in assay [2], more than 10 µM; at Histamine H2 receptor, more than 30 µM; in [7], 5.21 µM. Also, the AC50 in assay [3] is 10.3 µM; in assay [4] it was more than 30 µM; in [5] it was more than 30 µM.
